The text below walks through data of a melting point compilation (Tetko et al.; mined from patent text by program, amines drawn as free bases though some values may be those of a salt).

`Cc1ccc2c(Cl)cc(S(=O)(=O)NCc3ccc(Cl)cc3)c(O)c2n1`: the melting point lay in the range of 158 to 161 °C. Turning to `CCOc1cc2nc(S(C)(=O)=O)[nH]c2cc1OCC`, the melting point is 182 to 184 °C. Regarding `CN1Cc2ccccc2[C@H]2c3cccc4c3c(cn4C)C[C@@H]21` (relative stereo), the melting point fell in the range of 184 to 185 °C.

The compound `CC(C)(CO)C(O)(Cn1cncn1)c1ccc(Cl)cc1` (stereo not given) returned a melting point of 120 to 135 °C.

For the compound `CC(C)C(=O)c1cccn1N1C(=O)c2ccccc2C1=O`, the melting point was 147 to 149 °C. With `Cc1cc(COc2ccc(Oc3ccc(Cl)cc3)cc2)n(O)c(=O)c1`, the melting point was 168 to 170 °C. With `CCOC(=O)c1cc(-n2c(=O)[nH]c(C)c(C)c2=O)ccc1Cl` the figure was 202 to 204 °C; with `NC(=S)Nc1cc(Cl)cc(Cl)c1`, 180 °C. As for `CC(=O)OC[C@H]1OC(OC(C)=O)[C@H](OC(C)=O)[C@@H](F)[C@@H]1OC(C)=O` (stereo not given in full), the melting point was 115 to 121 °C. `Cc1noc(-c2nnc3c4ccccc4c(OCc4ncn(C)n4)nn23)n1` gave a melting point of 283 to 285 °C.

With `CN(Cc1ccco1)C1=N/C(=C\c2c[nH]c3ncc(Cl)cc23)C(=O)N1`, the melting point worked out at 315 °C. As to `Cc1ccc(-n2cc(CCCO)c(C(C)C)n2)nc1`, the melting point lay within 82 to 83 °C. `CCc1c(-c2cc(C)c(O)c(C)c2)[nH]c2ccccc12` had a melting point of 107 °C.

With `CCCCCCCCCCCCc1ccc(COc2cc(C(=O)O)nc3ccc(C)cc23)cc1`, the melting point lay in the range of 95 to 96 °C. Turning to `CCC=Cc1nc2ccccc2n1-c1cccc(C#N)c1C`, the melting point was determined as 125 °C. With `O=C(O)c1cnc2c3cc(NC(=O)C4CCCCC4)ccc3ncn2c1=O` the figure was 311 to 314 °C. Next, `CC(=O)N[C@H]1CCCc2ccccc21`: 153 to 155 °C; `CC(C)(C)OC(=O)c1ncn2c1[C@@H]1CCCN1C(=O)c1cc(F)ccc1-2`: 154 to 155 °C; `COc1cc(C(=O)c2ccc(C(F)(F)F)cc2)cc([N+](=O)[O-])c1O`: 172 °C. Next, `COc1ccc(-c2nc(CCCCCCc3nnn[nH]3)oc2-c2ccc(OC)cc2)cc1`: 124 °C; `CN1CCN(c2cc(Cl)cc3c2c(=O)n(Cc2ccncc2)c(=O)n3Cc2ccccc2)CC1`: 94 to 100 °C; `COC(=O)CCn1c(=O)n(CCN2CCN(c3ccccc3OC)CC2)c(=O)c2c(C)scc21`: 127 to 128 °C. The compound `CC(C)(C)c1cc(SCCC(=O)N2CCN(Cc3ccccc3)CC2)cc(C(C)(C)C)c1O` had a melting point of 92.5 to 95 °C. Next, `CCOC(=O)c1sc(C)nc1S`: 62 to 66 °C; `C#CCOC1(C(F)(F)F)CN(C)C(=O)Nc2ccc(Cl)cc21` (stereo not given): 230 to 232 °C. `COC(=O)CCCOc1cccc(CNC(=O)C2Cc3ccccc3N2S(=O)(=O)c2ccc(-c3cccc(C(F)(F)F)c3)cc2)c1` (stereo not given) yielded a melting point of 50 °C.

For the compound `CC1=C(Cc2ccc(NC(=O)OC(C)(C)C)cc2)C(=O)C2C=CC=CC2C1=O` (stereo not given), the melting point was in the range of 148 to 149 °C.

As for `COC(=O)c1ccc2cc(C=O)ccc2c1`, the melting point was 127 °C. In turn, `N#CCCN1C(=O)C(O)N=C(c2ccccc2Cl)c2cc(Cl)ccc21` (stereo not given) showed a melting point of 198 to 202 °C. `COC(=O)c1c(F)cc(OCCNC(=O)C2Cc3ccccc3N2S(=O)(=O)c2ccc(-c3ccc(F)cc3)cc2)cc1F` (stereo not given) displayed a melting point of 83 °C. As for `CCc1cccc(CC)c1NC(=O)CN`, the melting point fell in the range of 70 to 71 °C.

Consider `Cc1c(NC(=O)c2ccc(-c3ccc(Cl)s3)cc2)ccc2cc(CN3CCCC3)cnc12`, for which the melting point was in the range of 210 to 211 °C. `CCOC(=O)CNc1ncccc1NC(=O)c1ccccc1Cl`: the melting point fell in the range of 111 to 112 °C.

For the compound `CC(C)(CO)NC1=NS(=O)(=O)c2sc(Cl)cc2N1`, the melting point is 224 to 226 °C.

In turn, `Cc1nc(N)nc(N)c1-c1c(Cl)cccc1Cl` gave a melting point of 250 °C.

What is called melting point is the temperature, or range, at which the solid turns liquid.
